Reference: patent US20140335050A1, “METHODS, COMPOSITIONS, AND KITS FOR THE TREATMENT OF CANCER” (The General Hospital Corporation, priority 2011, published 2014)

Assays:
Assay type in all cases: cell-based, human
melanomas and gliomas = experiment: Intracellular staining for Melan-A/MART-1 and gp100, melanomas and gliomas exposed to hits (Table 10); details: in most cell lines; three days (Table 10)
Protocol: FIG. 7 is a series of graphs showing intracellular staining and flow histograms used to generate data for Table 10. All cells were stained with an antibody to gp100. Thin line represents untreated cells, bold line represents cells treated for three days with 17-AAG (1 μg/ml). Numbers represent geometric mean of flow histograms.
A further orthogonal secondary screen is the measurement of Melan-A/MART-1 and gp100 in additional melanoma cell lines and gliomas in response to the primary hit candidates. […] If the compounds of interest increase antigen levels in multiple melanoma cell lines and two gliomas, the effects of the compounds are clearly not limited to a single melanoma cell type.
As for the primary screen, 17-AAG and aphidicolin, had the largest impact on EGFP stimulation, inducing 3-fold and 5-fold increases respectively. Four additional compounds: damnacanthal, flunarizine, OBAA, and dantrolene stimulated EGFP more than 2-fold. We then tested the ability of the hit compounds to induce antigen increases in a more diverse set of tumors including melanomas and gliomas. […]
(§1) Cells were fixed with 1% formaldehyde, permeabilized with 0.1% saponin, stained with monoclonal antibodies to melanocyte antigens. […] The level of EGFP was determined by flow cytometry of unfixed cells that were washed and resuspended in 1×PBS.

[1] = test system: MU89 MART::EGFP cell line; experiment: Melan-A/MART-1 promoter-driven EGFP reporter, kinetics by flow cytometry; details: MU89 MART::EGFP (FIG. 11)
Protocol: FIG. 11 is a set of four graphs showing the kinetics of Melan-A/MART-1 increase. […] The same number of cells per well were plated in each well of a 24 well plate and drug was added on day zero. Each day cells were collected and assayed for that time point. Control untreated cells are shown for comparison. The data are from one representative experiment.
A kinetic analysis was performed to determine the effect of Hsp90 inhibition on Melan-A/MART-1 promoter activity over time. […] Reporter activity increases steadily for the first 72 hours of Hsp90 inhibition, and then plateaus. The need for continued presence of Hsp90 inhibitors in order for them to be effective (i.e. whether the drug can be removed after short exposure, or whether it must it be continually present) was assessed. […] To achieve full signal enhancement, it is desirable to retain the drug for at least 48 hours, after which the effect remains constant or slightly decreases.
The generation and application of EGFP reporter cells has been previously described. Briefly, a 1200 base pair human genomic DNA segment encompassing the Melan-A/MART-1 promoter was used to generate a construct driving expression of the EGFP reporter gene. Stable transfectants with this construct were generated in the low-antigen cell line A375 and the high-antigen line MM96L+ and MU89. The EGFP expression response patterns of these cells to IFN-beta and MAP kinase inhibitors recapitulates the antigen up-regulation of endogenous Melan-A/MART-1 induced by these agents.
Intracellular staining and flow cytometric analyses of cytoplasmic Melan-A/MART-1, and gp100 expression were performed as described previously. Cells were fixed with 1% formaldehyde, permeabilized with 0.1% saponin, stained with monoclonal antibodies to melanocyte antigens. Antibodies were obtained with specificity for: Melan-A/MART-1 from Vector Labs (Burlingame, Calif.); gp100/HMB45 from DakoCytomation (Carpinteria, Calif.) and then visualized with goat anti-mouse FITC-conjugated secondary antibody from Invitrogen (Frederick, Md.). The level of EGFP was determined by flow cytometry of unfixed cells washed and resuspended in 1×PBS. Surface staining of MHC Class I was carried out using the antibody W6/32 on cells harvested with Cell Stripper from MediaTech Inc. (Manassas, Va.) and carried out on ice.

MU89 melanoma cells = experiment: Tumor cell/T cell co-culture IL-2 ELISA (Melan-A/MART-1 specific TCR Jurkat line J-TCR-M1 as responder); details: for Fold increase (IL-2 relative to untreated controls), hits from pilot screen: about 10 μM, 72 hours treatment, then 24 hours co-culture
Text: The assay relies on the use of an antigen-specific responder T cell line. […] The chosen TCR reacts specifically to a Melan-A/MART-1 decapeptide (26[…]35) presented by HLA-A2, with appropriate triggering of T cell activation. We then used a lentiviral vector system for transduction of this specific TCR into the J.RT3-T3.5 T cell line, a Jurkat cell derivative which fails to express endogenous surface TCR through a mutation in its beta chain.
We evaluated several candidate melanoma cell lines for the ability to stimulate the J-TCR-M1 cell line. Levels of Melan-A/MART-1 (determined by intracellular staining and flow cytometry) and corresponding levels of induced IL-2 (determined by coculture with J-TCR-M1 and IL-2 ELISA) were tested for different melanoma cell lines.
The 480 compounds were tested in six parallel 96 well plates. The first two columns (16 wells) of each plate were used for standards (8 wells), untreated controls (4 wells), and positive controls (4 wells). The other ten columns (80 wells) were used for testing compounds in separate wells. A100 μl aliquot containing 5×10^4 MU89 cells was added to wells that contained 0.1 μl of each test drug diluted in 50 μl of RPMI media. The plates were incubated with drug for 72 hours at 37° C. in a humidified incubator with 5% CO2. After 72 hours, each well received 2.5×10^4J-TCR-M1 cells in 50 μl medium, and then incubated a further 24 hours. At the conclusion of the 24 hour co-culture period, each plate was centrifuged to pellet the cells and 100 μl supernatant fluid was collected from each well and plated in a parallel 96 well flat bottom well for IL-2 ELISA assay.
Melanoma cells were treated with hits from the primary screen for three days prior to counting and plating for the coculture assay (cells were washed and resuspended in fresh medium that no longer contained the treatment agents during the co-culture). A100 μl volume of 5×10^5 cells/ml tumor cells were mixed with 50 μl of […] T cells in a 96-well V-bottom plate and incubated overnight (16-24 hours). Plates were centrifuged to pellet the cells and 100 μl of supernatant fluid was removed from each well for cytokine assay. To assess antigen-specific T cell responses, a final concentration of 3.33 μg/ml Melan-A/MART-1 peptide (26[…]35 (A27L from wild type)) was added to the co-culture.
(§2) The protocol for evaluation of the cytokine IL-2 was performed using a the BD OptEAI kit, human IL-2 ELISA set from BD Biosciences (San Diego, Calif.) following the manufacturer's recommendations. The absorbance 450 nm was read in a BioRad 3550 plate reader. A standard curve using known concentrations of IL-2 (from 500 to 8 pg/ml) was included in each ELISA plate. IL-2 levels for experimental samples (pg/ml) were calculated from the standard curve.
100 μl of 5×10^5 tumor cells/ml were mixed with 50 μl of T cells (at 5×10^5 cells/ml) in a 96-well V-bottom plate and incubated overnight (16-24 hours). Plates were centrifuged to pellet the cells and 120 μl of supernatant fluid was removed from each well for cytokine assay. To assess antigen-specific T cell responses, 3.33 μg/ml Melan-A/MART-1 peptide was added to the co-culture.
The protocols for evaluation of either IL-2 or IFN-gamma were similar, following the manufacturer's recommendations. A standard curve using known concentrations of each cytokine was included in each ELISA experiment. ELISA plates were coated with capture antibody and then washed with 1×PBS 0.5% Tween-20. Wells were blocked with 1×PBS 1% FBS for 1 hour and rewashed.

[2] = test system: Melan-A/MART-1 promoter EGFP reporter cell line; experiment: Melan-A/MART-1 promoter-driven EGFP reporter cell line, secondary screen of hits (FIG. 6); details: over a dose range (FIG. 6)
Text: FIG. 6 is a series of graphs showing EGFP detection of in cells treated with the indicated hits showing ability to upregulate a cell line containing a Melan-A/MART-1 promoter-driven EGFP reporter. Note that the x-axes (drug concentrations) and y-axes (EGFP fluorescent measurement) cover different ranges to best indicate the activities of individual compounds. Data from a single determination, representative of at least three confirmatory experiments, is shown.
The EGFP reporter driven by the Melan-A/MART-1 promoter represents one such orthogonal assay because it evaluates directly the effect of the compounds on Melan-A/MART-1 promoter activity independent of Melan-A/MART-1 protein expression. Compounds passing the other secondary screens, but failing this one, may affect antigen presentation by other mechanisms such as increasing the efficiency of antigen processing, enhancing MHC Class I levels, or by stabilizing the antigen/MHC complex.
As for the primary screen, 17-AAG and aphidicolin, had the largest impact on EGFP stimulation, inducing 3-fold and 5-fold increases respectively. […]
as §1

J-TCR-M1 T cells = experiment: Secondary screen for nonspecific T cell activation (T cells alone, IL-2); details: 2.5×10^4 T cells alone, no tumor; PMA 2 μg/ml
Protocol: FIG. 4 is a graph showing IL-2 expression from the secondary screen for nonspecific T cell activation. Bars indicate the incubation of 2.5×10^4 T cells alone with the indicated compounds. The concentration of compounds used in this assay are; 17-AAG 10 μg/ml, OBAA 25 μg/ml, aphidicolin 4 μg/ml, flunarizine 8 μg/ml, dantrolene 2 μg/ml, glyburide 4 μg/ml, and PMA 2 μg/ml.
Secondary screens were carried out on the 8 primary hits, to further test performance robustness, specificity, and certain functional properties. Initially, for any previously-described compound, extensive literature searches must be performed to look for all relevant known bioactivities, especially towards melanocytic cells or T cells. […] Testing for non-specific T cell stimulation will identify false positives, and compounds failing this test will not be further evaluated in any other secondary screens. […]
as §2, with “A standard curve using known concentrations of IL-2 (from 500 to 8 pg/ml) was included in each ELISA plate.” left out

SMILES: C=CCNC1=C2C[C@@H](C)C[C@H](OC)[C@H](O)[C@@H](C)/C=C(\C)[C@H](OC(N)=O)[C@@H](OC)/C=C\C=C(/C)C(=O)NC(=CC1=O)C2=O [17-AAG, 17-allylaminogeldanamycin]
- Protein increase (Melan-A/MART-1, gp100 intracellular staining) (melanomas and gliomas): inducing high levels of protein increases at low concentrations
- Time at which the fluorescent reporter signal is significantly enhanced (as early as) [1]: 2 days
- Outcome in the primary co-culture IL-2 screen (hit or not) (MU89 melanoma cells; ICCB Known Bioactives Library, 10 μM): identified as a hit
- Fold increase (IL-2 relative to untreated controls), hits from pilot screen (MU89 melanoma cells): 7.7 fold
- IL-2 stimulation in repeat of the tumor T cell co-culture IL-2 ELISA (MU89 melanoma cells; hits re-tested over a wider dose range (FIG. 5)): about 7 fold
- EGFP stimulation (Melan-A/MART-1 promoter reporter) [2]: 3 fold

SMILES: CCCCCCCCCCCCCC(=O)O[C@@H]1[C@@H](C)[C@@]2(O)[C@@H](C=C(CO)C[C@]3(O)C(=O)C(C)=C[C@@H]23)[C@@H]2C(C)(C)[C@]12OC(C)=O [PMA, phorbol-12-myristate-13 acetate]
- IL-2 expression of T cells incubated alone with compound (nonspecific T cell activation) (J-TCR-M1 T cells): caused T cells stimulation in the absence of tumor
- Fold increase (IL-2 relative to untreated controls), hits from pilot screen (MU89 melanoma cells): 1.9 fold
